Assay results from patent publication US20040072825A1, “2-(2-(4-((2r)-2-methyl-3-(10h-phenothiazin-10-yl)propyl)-1-piperazinyl)-ethoxy) ethanol, process for the preparation thereof, pharmaceutical compositions containing said compound and therapeutic uses thereof” (priority 2000, published 2004).

Experiments:
D2 dopaminergic receptor = D2 dopaminergic receptor (Rattus norvegicus, UniProt P61169); assay: Radioligand binding, D2 receptor (rat striatum membranes)
Procedure: The test substances, biological materials and experimental protocols used in the study are described in Moguilevsky N. et al. (1994) Eur. J. […] List S. J. (1981) Proc. Natl. Acad. Sci.78:2620-2624; MacKenzie R. G. et al. (1994) Eur. J. Pharmacol. 266:79-85; Van Tol et al., (1992) Nature, 358:149-152. […] Filtermat A, Walac), then washed with cold buffer using a filtration unit ‘Cell Harvester’ (Brandel, Packard or Tomtec). The bound radioactivity is measured using a scintillation liquid (Formula 989 or Microscint 0, Packard) or solid (Meltilex B/HS, Wallac), and a scintillation counter (LS 6000, Beckman; Topcount, Packard; Betaplate, Wallac). […] Each experiment was performed in duplicate (n=2). In parallel, a positive control (concentration of reference substance causing 50% inhibition of radioligand specific binding) is tested to validate the assay. For competition experiments, membranes are incubated in the buffer containing the radioligand and increasing concentrations of unlabeled test substances. Each binding assay is validated with a reference compound tested in parallel. […] where BO and BI represent the total binding in the absence and presence of the unlabelled drug (in dpm/assay) and NSB is the amount of non specific binding (in dpm/assay). Analysis of raw data and pIC50 calculation is performed by computerized non-linear curve fitting methods using a set of equations describing competitive interactions between labelled and unlabeled ligands which obey the law of mass action. IC50 represents the concentration of the test substance inhibiting 50% of the specific binding of the radioligand. It is determined in competitive binding experiments by measuring the binding of a single concentration of a radioactive ligand at equilibrium with various concentrations of the unlabeled test substance. pIC50=−log IC50

5-HT3 receptor = molecular target: T1, 5-HT3 receptor (Homo sapiens, UniProt P46098); assay: Radioligand binding, 5-HT3 receptor; settings: mean of duplicate, read-out: percent inhibition of control specific binding
T1 sequence (P46098 24-478): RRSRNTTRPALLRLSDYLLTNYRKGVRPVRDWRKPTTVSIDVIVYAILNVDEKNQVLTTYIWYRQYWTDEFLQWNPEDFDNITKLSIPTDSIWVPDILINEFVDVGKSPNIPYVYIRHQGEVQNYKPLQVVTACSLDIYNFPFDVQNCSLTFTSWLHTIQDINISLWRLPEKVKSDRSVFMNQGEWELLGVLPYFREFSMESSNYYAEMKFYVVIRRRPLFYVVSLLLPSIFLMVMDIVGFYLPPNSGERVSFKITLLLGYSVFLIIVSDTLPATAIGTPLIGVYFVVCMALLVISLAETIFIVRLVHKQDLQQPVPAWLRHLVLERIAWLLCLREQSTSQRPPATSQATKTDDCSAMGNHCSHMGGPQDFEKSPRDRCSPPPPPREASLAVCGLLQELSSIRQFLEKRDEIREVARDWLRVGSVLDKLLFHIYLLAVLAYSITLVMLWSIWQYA

Chain of D2 dopaminergic receptor (P61169 1-415 isoform P61169-2): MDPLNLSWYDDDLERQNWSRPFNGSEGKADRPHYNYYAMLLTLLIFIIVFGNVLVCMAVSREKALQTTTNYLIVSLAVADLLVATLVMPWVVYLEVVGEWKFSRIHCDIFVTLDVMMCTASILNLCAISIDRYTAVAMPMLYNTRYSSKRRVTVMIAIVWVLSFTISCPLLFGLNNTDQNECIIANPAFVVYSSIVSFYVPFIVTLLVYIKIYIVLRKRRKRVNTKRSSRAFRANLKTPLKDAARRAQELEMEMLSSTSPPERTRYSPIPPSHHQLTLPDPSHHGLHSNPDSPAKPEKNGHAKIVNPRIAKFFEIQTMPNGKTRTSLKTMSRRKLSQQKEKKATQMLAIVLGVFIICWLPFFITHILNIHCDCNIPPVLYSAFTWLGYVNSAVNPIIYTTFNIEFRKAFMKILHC

With CC(CN1CCN(CCOCCO)CC1)CN1c2ccccc2Sc2ccccc21 (racemic) [Dixyrazine, 2-(2-(4-(2-methyl-3-(10H-phenothiazin-10-yl)propyl)-1-piperazinyl)ethoxy)ethanol, reference compound] the “percent inhibition of control specific binding” value (D2 dopaminergic receptor; D2, 10 μM, mean of duplicate, 10 µM) was 94%, the inhibition at 10 µM (D2 dopaminergic receptor; D2, 10 μM, mean of duplicate, read-out: percent inhibition of control specific binding) was > 90% and the IC50 (D2 dopaminergic receptor; D2, competitive binding, read-out: Affinity pIC50 (-log IC50) (converted)) was 5.01 nM. The inhibition at 0.1 µM (5-HT3 receptor; 5-HT3, 0.1 μM) was < 10% and the inhibition at 10 µM (5-HT3 receptor; 5-HT3, 10 μM) was 26%.
